The text below walks through data of patent US9351998B2, “Methods of nourishing animals” (MariCal, Inc., priority 2008, dated 2016).

One assay relates to chicken CaSR. Description: CaSR dependent ERK 1/2 phosphorylation (Western blot) in HEK cells transfected with chicken CaSR. Particulars: 1 micromolar MC 0100. In kind it is cell-based. The procedure: HEK cells transfected with the chicken CaSR were cultured under standard conditions (DMEM with 10% FCS). Confluent flasks were serum-starved overnight in DMEM supplemented with 0.2% BSA and pre-incubated for 60 min at 37° C. in the following medium: 125 mM NaCl, 4 mM KCl, 20 mM Hepes, 0.1% glucose, 0.8 mM NaH2PO4, 1 mM MgCl2, 0.1% BSA, 0.5 mM CaCl2, pH 7.45. The cells were then incubated in the same medium without BSA in the presence of different mineral chelates at different concentrations (see below) for 15 min at 37° C. At the end of the incubation treatment media was removed and cells were washed with PBS and than lysed in 250 microliter of M-PER lysis buffer (Pierce Chemical Company, Rockford, Ill.) containing 10 ul/ml of protease inhibitors (Pierce Chemical Company, Rockford, Ill.). Cell lysates were centrifuged for 10 min at 4° C. at 14,000×g. The protein content in the supernatants was analyzed using the BCA Protein Assay system from Pierce Chemical Company, Rockford, Ill. Equal amounts of protein (20 ug) were combined with 4× loading buffer and […] DTT, heated to 95° C., separated by SDS gel electrophoresis and electrotransferred to PVD membranes. The membranes were incubated in 1% BSA in TBS-T (TRIS-buffered saline containing Tween 20 at 0.1%) overnight. After 4 washes in TBS-T the membranes were incubated with primary antibody (anti phosphoERK at 1:400 dilution; this antibody recognizes the phosphorylated form of ERK 1/2) for 1.5 hours at room temperatures, washed 4 times and incubated with secondary antibody (anti mouse at 1:50,000 dilution). After 4 washes in TBS-T the membranes were developed using the ECL Western Blotting system.
The experiments described in FIGS. 34 A and B used the following metal chelate treatments: ZnProteinate, CuProteinate and MnProteinate (Balchem Corporation, New Hampton, N.Y.) at the following concentrations: 0.025% and 2.5%, or at a concentration of 0.025% with 1 micromolar MC 0100 (a calcimimetic); or various concentrations of bacitracin Zn.
Background: In western blotting, separated proteins are transferred to a membrane and probed.

Assay [1] can be described thus: Nonstressed pen trial, serum parameters of broiler chickens given feed additives. Particulars: feed additive, MC0100 10 mg/kg or Mintrex Zn 250 mg/kg, Day 14. In kind it is in vivo, broiler chickens (Cobb). The source says:
Male Cobb strain broiler chickens were reared in standard minipens and fed standard feed.

A further assay relates to chick CaSR. Description: Plasma calcium in chicks after single oral gavage of CaSR modulator. Particulars: various doses, 2 week old and newly hatched chicks, various intervals of time. The assay is classed as in vivo. From the text:
Male chicks (either newly hatched or 2 weeks of age) were gavaged with a single application of various doses of the specific CaSR modulator (MC 0100), a specific pharmacological modulator of CaSRs, to increase the apparent sensitivity of the CaSR to agonists such as calcium. An increase in the apparent sensitivity of the chick CaSR to extracellular calcium is expected to result in the “resetting” of the normal range of calcium within the chick to a lower level of plasma calcium since the functioning CaSR are all shifted leftward (more sensitive) on the dose response curve of CaSR for calcium.

The next assay relates to avian CaSR. The assay is described as follows: FURA2 ratio imaging fluorimetry of HEK cells stably expressing avian (chicken) CaSR. The assay is classed as cell-based. The source says: All methods and equipment utilized to perform experiments on HEK cells have been reported previously (Gama, L. and Breitwieser, G. E. 1998. A carboxyl-terminal domain controls the cooperativity for extracellular Ca2+ activation of the human calcium sensing receptor. A study with receptor-green fluorescent protein fusions. J. Biol. Chem. 273, 29712-29718; Bai, M., Quinn, S., Trivedi, S., Kifor, 0., Pearce, S. H., Pollak, M. R., Krapcho, K., Hebert, S. C. and Brown, E. M. 1996. Expression and characterization of inactivating and activating mutations in the human Ca2+o-sensing receptor. J. Biol. Chem. 271, 19537-19544). Untransfected HEK cells or, alternatively, cells transfected and expressing CaSR protein were cultured in Dulbecco's Modified Eagle Medium containing 10% fetal bovine serum and 1% penicillin-streptomycin in 75 cm^2 flasks until they reached confluence. Media was removed from the flasks and cells were loaded by exposure to Loading Buffer (125 mM NaCl, 4 mM KCl, 1.0 mMCaCl2, 1.0 mM MgCl2, 1 mM NaH2PO4, 20 mM HEPES, 1 gm/liter bovine serum albumin, and 1 gm/l glucose, pH ˜7.4, osmolality ˜285) containing 4.1 micromolar FURA2-AM (Molecular Probes Inc. Eugene, Oreg.) for 2 hr. Cells were then scraped from the surface of the flask using a standard cell scraper (Costar 3010, Corning Inc.). Cells were then pelleted from the suspension by low speed centrifugation to remove loading buffer and rinsed twice to remove extracellular FURA2 dye by two sequential suspensions and pelleting steps using low speed centrifugation. Immediately prior to the start of the experiment, cells were resuspended in various experimental buffers for analyses as described below. The Standard Experimental Buffer used for many studies was composed of: 125 mM NaCl, 4 mM KCl, 0.5 mMCaCl2, 0.5 mM MgCl2, 20 mM HEPES, 1 g/l glucose, pH ˜7.4, osmolality ˜285. All other buffers were variations on this basic composition where specific components within the Standard Experimental Buffer were varied while the remaining components were held constant.
Cell suspensions consisting of a total volume of 3 ml were analyzed in a PTI fluorimeter (PTI Model 814 Photomultiplier Detection System equipped with SC-500 Shutter Controller and PTI Driver and Analysis Software) within approximately 20 min after exposure to experimental buffers. Data was acquired using standard ratio image analysis as described previously using a data acquisition rate of 1.3 sec. for 500 or 1000 second intervals.
In selected experiments, the detergent Triton X-100 was added in order to lyse the cells and quantify differences in FURA2 ratio fluorescence. Triton X-100 was added to the cells to obtain a maximal fluorescence signal from the FURA2 for purposes of quantification.
The ability of the CaSR modulator MC0100 to potentiate the response of avian and mammalian CaSRs to the chelated mineral amino acid complex, ZnPro, was tested. For avian CaSR experiments, three individual aliquots from a single pool of HEK cells that stably express the recombinant avian CaSR protein were used for ratio imaging fluorimetry assays of CaSR activation generally as described in Example 6 herein. […] In all aliquots, the detergent Triton X-100 was added as the last addition to lyse the cells (FIG. 29A).
From a single pool of HEK cells stably expressing the avian CaSR, aliquots of cells were removed and analyzed using ratio imaging fluorimetry generally as described in Example 6 herein. After a standard addition of Ca++ to a final concentration of 2.5 mM, either 0.0025%, 0.025% or 0.25% Zinc Proteinate was added followed by a second addition of Ca++ to a final concentration of 7.5 mM. Subsequently, an aliquot of the detergent Triton X-100 was added to lyse the cells. […] The magnitude of the subsequent CaSR response to Ca++ was reduced via increasing Zn Proteinate stimulation.
Fluorimetry analysis was performed on HEK cells expressing the recombinant chicken CaSR protein generally as described in Example 6 herein.

With `COc1cccc([C@@H](C)NCCCc2ccccc2)c1` [MC0100], in the assay on chicken CaSR, the “effect on ERK1/2 phosphorylation response to 0.025% Cu Proteinate” value is “net reduction” and the “effect on ERK1/2 phosphorylation response to 0.025% Mn Proteinate” value is given as “strongly enhanced”. The “mean serum calcium concentration compared to Control” value in assay [1] is “significant reductions”. Moreover, in the assay with chick CaSR, the plasma calcium entry is reported as “dose dependent decrease”. In the assay with avian CaSR (1 micromolar MC0100, buffer 1.5 mM Ca2+), the “effect of prior modulator on CaSR response to 0.25% Mintrex Zn” value is “potentiated the response”. Besides, in the assay with avian CaSR (MC0100 added before ZnPro), the “effect of modulator on CaSR response to ZnPro” value is listed as “potentiates the response”. In the assay with avian CaSR (MC0100 at final 1 micromolar, buffer 1.5 mM Ca2+), the “CaSR response to the modulator itself” value is recorded as “yielded a response”. The “CaSR response to stepwise additions” value with avian CaSR (after addition of 2.5 mM Ca++ (FIG. 36)) is reported as “increased responses”.
